Results from patent US20240336594A1, “SIX-MEMBERED ARYL OR HETEROARYL AMIDES, AND COMPOSITION AND USE THEREOF” (BETTA PHARMACEUTICALS CO., LTD, priority 2021, published 2024).

Target: T1, MALT1 (Homo sapiens, UniProt Q9UDY8)
T1 sequence (Q9UDY8 1-824): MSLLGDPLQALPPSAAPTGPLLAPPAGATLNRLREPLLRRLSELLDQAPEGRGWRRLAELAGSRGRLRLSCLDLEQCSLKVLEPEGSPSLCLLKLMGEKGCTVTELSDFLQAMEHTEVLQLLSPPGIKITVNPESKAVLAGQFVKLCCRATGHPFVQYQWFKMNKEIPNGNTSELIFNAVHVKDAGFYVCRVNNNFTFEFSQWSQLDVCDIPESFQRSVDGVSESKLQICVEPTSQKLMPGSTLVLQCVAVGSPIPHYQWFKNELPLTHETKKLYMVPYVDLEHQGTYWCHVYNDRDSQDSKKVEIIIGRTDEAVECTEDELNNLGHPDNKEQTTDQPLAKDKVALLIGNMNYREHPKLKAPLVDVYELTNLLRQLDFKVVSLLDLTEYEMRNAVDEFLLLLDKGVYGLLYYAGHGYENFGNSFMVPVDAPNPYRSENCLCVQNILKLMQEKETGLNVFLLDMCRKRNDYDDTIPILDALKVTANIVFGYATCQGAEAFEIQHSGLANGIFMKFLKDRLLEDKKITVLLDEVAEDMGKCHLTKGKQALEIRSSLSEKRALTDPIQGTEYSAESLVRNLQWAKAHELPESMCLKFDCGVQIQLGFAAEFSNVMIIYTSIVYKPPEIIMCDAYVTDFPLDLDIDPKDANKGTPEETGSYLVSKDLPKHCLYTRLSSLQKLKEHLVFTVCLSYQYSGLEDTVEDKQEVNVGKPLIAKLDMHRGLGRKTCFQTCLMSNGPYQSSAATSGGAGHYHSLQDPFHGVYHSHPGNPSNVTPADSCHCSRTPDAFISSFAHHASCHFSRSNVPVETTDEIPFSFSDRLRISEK
Experiment: MALT1 protease inhibition assay (AMC-labeled peptide, fluorescence 360/460)
Format: biochemical
Details: substrate Ac-LRSR-AMC, 15 min preincubation, 90 min at 25° C.
Protocol: Test compounds of the present invention (in 100% DMSO) were spotted into a 384-well dilution plate and serially diluted to the required concentrations with DMSO. Then, 0.2 μL of the test compounds were transferred into a new 384-well reaction plate by Echo following centrifugation. The MALT enzyme and its substrate, AMC-labeled peptide, were prepared in 1× protease buffer to yield 2× enzyme solution and 2× peptide solution. Subsequently, 10 μL of 2× enzyme solution was added into the 384-well reaction plate, incubating with the test compounds for 15 minutes at 25° C. After that, 10 μL of 2× peptide solution was added into the plate, continuing to incubate for 90 minutes at 25° C. The plate was then placed on an Envision multifunctional microplate reader to collect raw data, which would be converted into inhibition rate:
Inhibition rate %=(max−sample)/(max−min)*100%. • “max” values were measured using the reaction with enzyme but no compound treated, while “min” values were generated from control wells containing assay buffer without enzyme.
Curve fitting was done with Graphpad Prism software to determine the IC50 values. The specific experimental operations are as follows:
58.82 g Na Citrate·2H2O powder was added into 140 mL ddH2O and mixed in a 37° C. water bath. Once there were no visible particles, the remaining solutions were added successively with continuous stirring for 10 minutes. The final volume was adjusted to 200 mL. The buffer was stored at room temperature. DTT was added before use.
• 1) All test compounds were diluted from 10 mM stock solution into 1 mM in a 384 well dilution plate (labcyte, PP-0200); • 2) Ten various concentrations of the diluted compound solution above were obtained by serial dilution at an equal ratio of 1:3; • 3) 0.2 μL DMSO was transferred to two empty wells of the 384 reaction plate as blank controls without compound and enzyme respectively; • 4) 0.2 μL of the test compound at different concentrations was also transferred into the 384 reaction plate by Echo, with two duplicate wells for each concentration, then the plate was centrifuged at 1000 rpm for 1 min.
• 1) The MALT1 protease and AMC-labeled peptide was prepared in 1× protease buffer to obtain 2× enzyme solution and 2× peptide solution. 10 μL of 2× enzyme solution was added into the 384-well reaction plate. The plate was centrifuged at 1000 rpm for 1 min and incubated for 15 min at 25° C. • 2) 10 μL of 2× peptide solution was then transferred to the 384 reaction plate, and the plate was centrifuged at 1000 rpm for 1 min and incubate for 90 min at 25° C.

Compound: 5-(2′-amino-5-chloro-2,4′- difluoro-[1,1′-biphenyl]-4- carboxamido)-3-chloro-N- (2,2-difluoro-2λ3- ethyl)picolinamide [Example A457]
- IC50: 10 to 100 nM

Compound: C#Cc1cc(F)cnc1-c1cc(Cl)c(C(=O)Nc2ccnc(C(F)(F)F)c2)cc1F [Example A324, 2-chloro-4-(3-ethyny1-5-fluoropyridin-2-y1)-5-fluoro-N-(2-(trifluoromethyl)pyridin-4-yl)benzamide]
- IC50: ≤ 10 nM

Compound: C#Cc1cnccc1-c1c(F)c(F)c(C(=O)Nc2cnc(-n3nccn3)c(Cl)c2)c(F)c1F [Example A333, N-(5-chloro-6-(2H-1,2,3-triazol-2-yl)pyridin-3-y1)-4-(3-ethynylpyridin-4-y1)-2,3,5,6-tetrafluorobenzamide]
- IC50: ≤ 10 nM

Compound: C#Cc1cc(F)cnc1-c1cc(Cl)c(C(=O)Nc2cnc(-n3nccn3)c(Cl)c2)cc1F [Example A335, 2-chloro-N-(5-chloro-6-(2H-1,2,3-triazol-2-yl)pyridin-3-y1)-4-(3-ethyny1-5-fluoropyridin-2-y1)-5-fluorobenzamide]
- IC50: ≤ 10 nM

Compound: C#Cc1cnccc1-c1cc(Cl)c(C(=O)Nc2ccc(OC)c(Cl)c2)cc1F [Example A338, 2-chloro-N-(3-chloro-4-methoxyphenyl)-4-(3-ethynylpyridin-4-y1)-5-fluorobenzamide]
- IC50: ≤ 10 nM

Compound: C=CC(=O)Nc1cnccc1-c1cc(Cl)c(C(=O)Nc2cnc(-n3nccn3)c(Cl)c2)cc1F [Example A342, 4-(3-acrylamidopyridin-4-y1)-2-chloro-N-(5-chloro-6-(2H-1,2,3-triazol-2-y1)pyridin-3-y1)-5-fluorobenzamide]
- IC50: ≤ 10 nM

Compound: C=Cc1cnccc1-c1cc(Cl)c(C(=O)Nc2cnc(-n3nccn3)c(C(F)(F)F)c2)cc1F [Example A346, N-(6-(2H-1,2,3-triazol-2-yl)-5-(trifluoromethyl)pyridin-3-yl)-2-chloro-5-fluoro-4-(3-vinylpyridin-4-y1)benzamide]
- IC50: ≤ 10 nM

Compound: C#Cc1cc(C(=O)Nc2cnc(-n3nccn3)c(Cl)c2)c(C)cc1-c1ccc(F)cc1N [Example A409]
- IC50: ≤ 10 nM

Compound: C#Cc1cccc(Cl)c1-c1cc(Cl)c(C(=O)Nc2cnc(-n3nccn3)c(C(F)(F)F)c2)cc1F [Example A413]
- IC50: ≤ 10 nM

Compound: C#Cc1cc(C(=O)Nc2cnc(-n3nccn3)c(Cl)c2)c(C)cc1-c1ccc(F)cc1Cl [Example A414, 2′-chloro-N-(5-chloro-6-(2H-1,2,3-triazol-2-yl)pyridin-3-yl)-2-ethynyl-4′-fluoro-5-methyl-[1,1′-biphenyl]-4-carboxamide]
- IC50: 10 to 100 nM

Compound: C#Cc1cc(F)ccc1-c1cc(C)c(C(=O)Nc2cnc(-n3nccn3)c(Cl)c2)cc1C#C [Example A415]
- IC50: 10 to 100 nM

Compound: C#Cc1cc(C(=O)Nc2cnc(-n3nccn3)c(Cl)c2)c(C)cc1-c1ccc(F)nc1N [Example A416, 4-(2-amino-6-fluoropyridin-3-yl)-N-(5-chloro-6-(2H-1,2,3-triazol-2-yl)pyridin-3-yl)-5-ethynyl-2-methylbenzamide]
- IC50: 100 to 500 nM

Compound: C#Cc1cc(C(=O)Nc2cnc(-n3nccn3)c(Cl)c2)c(C)cc1-c1ccncc1OC [Example A417, N-(5-chloro-6-(2H-1,2,3-triazol-2-yl)pyridin-3-yl)-5-ethynyl-4-(3-methoxypyridin-4-yl)-2-methylbenzamide]
- IC50: 10 to 100 nM

Compound: Nc1cc(F)ccc1-c1cc(Cl)c(C(=O)Nc2cnc(-n3nccn3)c(Cl)c2)cc1C1=CCCCC1 [Example A418, 2-amino-5′-chloro-N-(5-chloro-6-(2H-1,2,3-triazol-2-yl)pyridin-3-yl)-4-fluoro-2″,3″,4″,5″-tetrahydro-[1,1′:2′,1″-terphenyl]-4′-carboxamide]
- IC50: > 500 nM

Compound: Cc1cc(-c2ccc(F)cc2Cl)c(-c2ccccc2)cc1C(=O)Nc1cnc(-n2nccn2)c(Cl)c1 [Example A419, 2-chloro-N-(5-chloro-6-(2H-1,2,3-triazol-2-yl)pyridin-3-yl)-4-fluoro-5′-methyl-[1,1′:2′,1″-terphenyl]-4′-carboxamide]
- IC50: > 500 nM

Compound: Cc1cc(-c2ccc(F)cc2N)c(C2=CCCC2)cc1C(=O)Nc1cnc(-n2nccn2)c(Cl)c1 [Example A420, 2′-amino-N-(5-chloro-6-(2H-1,2,3-triazol-2-yl)pyridin-3-yl)-2-(cyclopent-1-en-1-yl)-4′-fluoro-5-methyl-[1,1′-biphenyl]-4-carboxamide]
- IC50: > 500 nM

Compound: Cc1cc(-c2ccc(F)cc2N)c(-c2ccccc2)cc1C(=O)Nc1cnc(-n2nccn2)c(Cl)c1 [Example A421, 2-amino-N-(5-chloro-6-(2H-1,2,3-triazol-2-yl)pyridin-3-yl)-4-fluoro-5′-methyl-[1,1′:2′,1″-terphenyl]-4′-carboxamide]
- IC50: > 500 nM

Compound: C#Cc1cc(F)ccc1-c1cc(C)c(C(=O)Nc2cnc(-n3nccn3)c(Cl)c2)cc1-c1ccccc1 [Example A422, N-(5-chloro-6-(2H-1,2,3-triazol-2-yl)pyridin-3-yl)-2-ethynyl-4-fluoro-5′-methyl-[1,1′:2′,1″-terphenyl]-4′-carboxamide]
- IC50: > 500 nM

Compound: CC#Cc1cc(C(=O)Nc2cnc(-n3nccn3)c(Cl)c2)c(C)cc1-c1ccc(F)cc1N [Example A423]
- IC50: 10 to 100 nM

Compound: C=Cc1cc(C(=O)Nc2cnc(-n3nccn3)c(Cl)c2)c(Cl)cc1-c1ccc(F)cc1N [Example A424, 2′-amino-5-chloro-N-(5-chloro-6-(2H-1,2,3-triazol-2-yl)pyridin-3-yl)-4′-fluoro-2-vinyl-[1,1′-biphenyl]-4-carboxamide]
- IC50: 10 to 100 nM

Compound: C=Cc1cc(C(=O)Nc2cnc(-n3nccn3)c(Cl)c2)c(C)cc1-c1ccc(F)cc1N [Example A425]
- IC50: 10 to 100 nM

Compound: C#Cc1cnccc1-c1cc(Cl)c(C(=O)Nc2cnc(C(=O)NCCC)c(Cl)c2)cc1F [Example A430, 3-chloro-5-(2-chloro-4-(3-ethynylpyridin-4-yl)-5-fluorobenzamido)-N-propylpicolinamide]
- IC50: ≤ 10 nM

Compound: C#Cc1cnccc1-c1cc(Cl)c(C(=O)Nc2cnc(C(=O)NCCOC(F)(F)F)c(Cl)c2)cc1F [Example A431, 3-chloro-5-(2-chloro-4-(3-ethynylpyridin-4-yl)-5-fluorobenzamido)-N-(2-(trifluoromethoxy)ethyl) picolinamide]
- IC50: 10 to 100 nM

Compound: C#Cc1cnccc1-c1cc(Cl)c(C(=O)Nc2cnc(C(=O)NCCc3ccccc3)c(Cl)c2)cc1F [Example A432, 3-chloro-5-(2-chloro-4-(3-ethynylpyridin-4-yl)-5-fluorobenzamido)-N-phenethylpicolinamide]
- IC50: 10 to 100 nM

Compound: C#Cc1cnccc1-c1cc(Cl)c(C(=O)Nc2cnc(C(=O)NCc3ccoc3)c(Cl)c2)cc1F [Example A433, 3 3-chloro-5-(2-chloro-4-(3-ethynylpyridin-4-yl)-5-fluorobenzamido)-N-(furan-3-ylmethyl)picolinamide]
- IC50: 10 to 100 nM

Compound: C#Cc1cnccc1-c1cc(Cl)c(C(=O)Nc2cnc(C(=O)NCC(C)(C)C)c(Cl)c2)cc1F [Example A434, 3-chloro-5-(2-chloro-4-(3-ethynylpyridin-4-yl)-5-fluorobenzamido)-N-neopentylpicolinamide]
- IC50: 10 to 100 nM

Compound: C#Cc1cnccc1-c1cc(Cl)c(C(=O)Nc2cnc(C(=O)NCC(=O)N(CC)CC)c(Cl)c2)cc1F [Example A435, 3-chloro-5-(2-chloro-4-(3-ethynylpyridin-4-yl)-5-fluorobenzamido)-N-(2-(diethylamino)-2-oxoethyl)picolinamide]
- IC50: 10 to 100 nM
